Tested on: cancer cells
Assay: MTT cytotoxic assay of esterification products (Cytotoxicity activity)
Format: cell-based, human
Procedure, shortened: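 Cytotoxicity was read by MTT (Carmichael method, modified), with cells seeded 24 h ahead of treatment. Sixteen human cancer lines spanning bone, lung, bladder, ovary, colon, pancreas, prostate, skin, mouth, kidney, breast, liver, brain, leukemia and cervix were used. Test samples were acyl chloride esterification products of triterpenes, as mixtures or HPLC-purified compounds.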

[1] = E4A esterified with Crotonoyl chloride (Cro = Crotonoyl), compounds isolated with HPLC
[2] = E4A esterified with Acetyl chloride (Acy = Acetyl), compounds isolated with HPLC
[3] = esterification products isolated with HPLC, graded strong / moderate / weak
[4] = MTT cytotoxic assay, isolated esterification products of E4A
[5] = E4A esterified with Cinnamoyl chloride (Cin = Cinnamoyl), compounds isolated with HPLC

CC=CC(=O)OCC1(C)C(OC(=O)C=CC)CCC2(C)C1CCC1(C)C2CC=C2C3CC(C)(C)C(O)C(O)C3(CO)C(O)CC21C (stereo not shown) [Compound I31]
Cytotoxicity activity [1]: moderate

CC=CC(=O)OCC12C(O)CC3(C)C(=CCC4C5(C)CCC(O)C(C)(CO)C5CCC43C)C1CC(C)(C)C(OC(=O)C=CC)C2OC(=O)C=CC (stereo not shown) [Compound I20]
Cytotoxicity activity [1]: moderate

C/C=C(\C)C(=O)OC[C@]1(C)C2CC[C@]3(C)C(CC=C4C5CC(C)(C)[C@@H](O)[C@H](O)[C@]5(COC(=O)C=C(C)C)[C@H](O)C[C@]43C)[C@@]2(C)CC[C@@H]1O (stereo partly drawn) [E4A-Tig-Sen-1]
Cytotoxicity activity (esterification products of E4A—Tig—N with senecioyl chloride): strong

CC(=O)OCC1(C)C(O)CCC2(C)C1CCC1(C)C2CC=C2C3CC(C)(C)C(OC(C)=O)C(O)C3(COC(C)=O)C(OC(C)=O)CC21C (stereo not shown) [Compound H13]
Cytotoxicity activity [2]: weak

C=CCCC(=O)OC1CCC2(C)C(CCC3(C)C2CC=C2C4CC(C)(C)C(O)C(O)C4(COC(=O)C(C)=CC)C(O)CC23C)C1(C)COC(=O)C(C)=CC (stereo not shown) [Tig—R—Pen—4]
Cytotoxicity activity [3]: moderate

CCC(CC)C(=O)OCC1(C)C(OC(=O)C(CC)CC)CCC2(C)C1CCC1(C)C2CC=C2C3CC(C)(C)C(O)C(O)C3(CO)C(O)CC21C (stereo not shown) [Compound E31]
Cytotoxicity activity [4]: moderate

CC=C(C)C(=O)OCC1(C)C(O)CCC2(C)C1CCC1(C)C2CC=C2C3CC(C)(C)C(O)C(O)C3(COC(=O)C(CC)CC)C(O)CC21C (stereo not shown) [Tig—Eth—1]
Cytotoxicity activity [3]: strong

CC(C)=CC(=O)OCC1(C)C(O)CCC2(C)C1CCC1(C)C2CC=C2C3CC(C)(C)C(O)C(OC(=O)C=C(C)C)C3(CO)C(O)CC21C (stereo not shown) [Compound B30]
Cytotoxicity activity [4]: moderate

CCC(CC)C(=O)OCC1(C)C(OC(=O)C(CC)CC)CCC2(C)C1CCC1(C)C2CC=C2C3CC(C)(C)C(O)C(O)C3(COC(=O)C(CC)CC)C(O)CC21C (stereo not shown) [Compound E6]
Cytotoxicity activity [4]: moderate

CCC(CC)C(=O)OCC1(C)C(OC(=O)C(CC)CC)CCC2(C)C1CCC1(C)C2CC=C2C3CC(C)(C)C(OC(=O)C(CC)CC)C(O)C3(COC(=O)C(CC)CC)C(OC(=O)C(CC)CC)CC21C (stereo not shown) [Compound E17]
Cytotoxicity activity [4]: weak

CC(=O)OCC1(C)C(OC(C)=O)CCC2(C)C1CCC1(C)C2CC=C2C3CC(C)(C)C(OC(C)=O)C(O)C3(COC(C)=O)C(O)CC21C (stereo not shown) [Compound H11]
Cytotoxicity activity [2]: weak

CC=C(C)C(=O)OCC1(C)C(O)CCC2(C)C1CCC1(C)C2CC=C2C3CC(C)(C)C(O)C(OC(=O)C=Cc4ccccc4)C3(CO)C(O)CC21C (stereo not shown) [Tig—Cin—6]
Cytotoxicity activity [3]: moderate

CC=C(C)C(=O)OCC1(C)C(OC(=O)C(C)=CC)CCC2(C)C1CCC1(C)C2CC=C2C3CC(C)(C)C(OC(=O)C(C)=CC)C(O)C3(COC(=O)C(C)=CC)C(O)CC21C (stereo not shown) [Tig—R—Ang—5]
Cytotoxicity activity [3]: weak

CC=C(C)C(=O)OC1C(OC(=O)C(C)=CC)C2(CO)C(OC(=O)C(C)=CC)CC3(C)C(=CCC4C5(C)CCC(O)C(C)(CO)C5CCC43C)C2CC1(C)C (stereo not shown) [Compound A22]
Cytotoxicity activity [4]: moderate

CC(=O)OCC1(C)C(O)CCC2(C)C1CCC1(C)C2CC=C2C3CC(C)(C)C(O)C(O)C3(CO)C(OC(C)=O)CC21C (stereo not shown) [Compound H32]
Cytotoxicity activity [2]: moderate

CC=C(C)C(=O)OCC1(C)C(O)CCC2(C)C1CCC1(C)C2CC=C2C3CC(C)(C)C(O)C(OC(C)=O)C3(COC(=O)C(C)=CC)C(O)CC21C (stereo not shown) [Tig—R—Acy—3]
Cytotoxicity activity [3]: moderate

CC(C)=CC(=O)OC1C(OC(=O)C=C(C)C)C2(CO)C(O)CC3(C)C(=CCC4C5(C)CCC(O)C(C)(CO)C5CCC43C)C2CC1(C)C (stereo not shown) [Compound B24]
Cytotoxicity activity [4]: moderate

CC1(C)CC2C3=CCC4C5(C)CCC(O)C(C)(COC(=O)C=Cc6ccccc6)C5CCC4(C)C3(C)CC(OC(=O)C=Cc3ccccc3)C2(COC(=O)C=Cc2ccccc2)C(O)C1OC(=O)C=Cc1ccccc1 (stereo not shown) [Compound J13]
Cytotoxicity activity [5]: weak

CC=C(C)C(=O)OCC1(C)C(O)CCC2(C)C1CCC1(C)C2CC=C2C3CC(C)(C)C(OC(=O)C(CC)CC)C(OC(=O)C(CC)CC)C3(COC(=O)C(C)=CC)C(O)CC21C (stereo not shown) [Tig—R—Eth—1]
Cytotoxicity activity [3]: weak

CC1(C)CC2C3=CCC4C5(C)CCC(O)C(C)(COC(=O)C=Cc6ccccc6)C5CCC4(C)C3(C)CC(OC(=O)C=Cc3ccccc3)C2(COC(=O)C=Cc2ccccc2)C(OC(=O)C=Cc2ccccc2)C1O (stereo not shown) [Compound J12]
Cytotoxicity activity [5]: weak

CC=CC(=O)OCC1(C)C(O)CCC2(C)C1CCC1(C)C2CC=C2C3CC(C)(C)C(OC(=O)C=CC)C(OC(=O)C=CC)C3(COC(=O)C=CC)C(O)CC21C (stereo not shown) [Compound I8]
Cytotoxicity activity [1]: weak

C=CCCC(=O)OCC1(C)C(O)CCC2(C)C1CCC1(C)C2CC=C2C3CC(C)(C)C(OC(=O)CCC=C)C(OC(=O)CCC=C)C3(CO)C(O)CC21C (stereo not shown) [Compound C21]
Cytotoxicity activity [4]: moderate

CCC(CC)C(=O)OCC12C(OC(=O)C(CC)CC)CC3(C)C(=CCC4C5(C)CCC(O)C(C)(CO)C5CCC43C)C1CC(C)(C)C(O)C2O (stereo not shown) [Compound E28]
Cytotoxicity activity [4]: moderate

CC1(C)CC2C3=CCC4C5(C)CCC(O)C(C)(COC(=O)C=Cc6ccccc6)C5CCC4(C)C3(C)CC(OC(=O)C=Cc3ccccc3)C2(COC(=O)C=Cc2ccccc2)C(OC(=O)C=Cc2ccccc2)C1OC(=O)C=Cc1ccccc1 (stereo not shown) [Compound J16]
Cytotoxicity activity [5]: weak

CC1(C)CC2C3=CCC4C5(C)CCC(OC(=O)c6ccccc6)C(C)(COC(=O)c6ccccc6)C5CCC4(C)C3(C)CC(OC(=O)c3ccccc3)C2(COC(=O)c2ccccc2)C(OC(=O)c2ccccc2)C1O (stereo not shown) [Compound K18]
Cytotoxicity activity (E4A esterified with 2-propenoyl chloride (Ppe = Propenoyl), compounds isolated with HPLC): weak
Cytotoxicity activity (E4A esterified with Propionyl chloride (Ppi = Propionyl), compounds isolated with HPLC): weak
Cytotoxicity activity (E4A esterified with benzoyl chloride (Ben = benzoyl), compounds isolated with HPLC): weak
Cytotoxicity activity (esterification products of core compound E4A with (2E)-2-pentenoyl chloride (2pe = 2-pentenoyl)): weak
Cytotoxicity activity (esterification products of core compound E4A with Butyryl chloride (But = Butyryl)): weak
Cytotoxicity activity (esterification products of core compound E4A with Decanoyl chloride (Dec = Decanoyl)): weak
Cytotoxicity activity (esterification products of core compound E4A with Isobutyryl chloride (Iso = Isobutyryl)): weak
Cytotoxicity activity (esterification products of core compound E4A with Myristoyl chloride (Myr = Myristoyl)): weak
Cytotoxicity activity (esterification products of core compound E4A with Octanoyl chloride (Oct = Octanoyl)): weak

CC1(C)CC2C3=CCC4C5(C)CCC(O)C(C)(COC(=O)C=Cc6ccccc6)C5CCC4(C)C3(C)CC(O)C2(COC(=O)C=Cc2ccccc2)C(OC(=O)C=Cc2ccccc2)C1OC(=O)C=Cc1ccccc1 (stereo not shown) [Compound J8]
Cytotoxicity activity [5]: weak

CCCCCC(=O)OCC1(C)C(O)CCC2(C)C1CCC1(C)C2CC=C2C3CC(C)(C)C(OC(=O)CCCCC)C(O)C3(CO)C(O)CC21C (stereo not shown) [Compound D29]
Cytotoxicity activity [4]: moderate

CC=C(C)C(=O)OCC1(C)C(O)CCC2(C)C1CCC1(C)C2CC=C2C3CC(C)(C)C(OC(=O)CCCCC)C(O)C3(COC(=O)C(C)=CC)C(O)CC21C (stereo not shown) [Tig—R—Hex—2]
Cytotoxicity activity [3]: moderate

CC=CC(=O)OCC1(C)C(OC(=O)C=CC)CCC2(C)C1CCC1(C)C2CC=C2C3CC(C)(C)C(OC(=O)C=CC)C(OC(=O)C=CC)C3(COC(=O)C=CC)C(O)CC21C (stereo not shown) [Compound I15]
Cytotoxicity activity [1]: weak

CC(C)=CC(=O)OCC1(C)C(O)CCC2(C)C1CCC1(C)C2CC=C2C3CC(C)(C)C(OC(=O)C=C(C)C)C(O)C3(COC(=O)C=C(C)C)C(O)CC21C (stereo not shown) [Compound B4]
Cytotoxicity activity [4]: moderate

CC=C(C)C(=O)OCC1(C)C(OC(=O)C=Cc2ccccc2)CCC2(C)C1CCC1(C)C2CC=C2C3CC(C)(C)C(O)C(O)C3(COC(=O)C(C)=CC)C(O)CC21C (stereo not shown) [Tig—R—Cin—4]
Cytotoxicity activity [3]: moderate

CC1(C)CC2C3=CCC4C5(C)CCC(OC(=O)C=Cc6ccccc6)C(C)(COC(=O)C=Cc6ccccc6)C5CCC4(C)C3(C)CC(OC(=O)C=Cc3ccccc3)C2(COC(=O)C=Cc2ccccc2)C(O)C1O (stereo not shown) [Compound J10]
Cytotoxicity activity [5]: weak

— patent publication US20230340012A1, “NATURAL AND SYNTHETIC COMPOUNDS FOR TREATING CANCER AND OTHER DISEASES” (PACIFIC ARROW LIMITED, priority 2009, published 2023)
